Assay results from US20030073850A1, “4-Imidazole derivatives of benzyl and restricted benzyl sulfonamides, sulfamides, ureas, carbamates, and amides and their use” (priority 1998, published 2003).
Counter-ions that a name gives are not always drawn. Like-named read-outs stand apart in the source and are kept apart here.

Assays:
[1] = molecular target: T1, α1b (hamster receptor expressed in mouse fibroblasts) (Mesocricetus auratus, UniProt P18841); assay: Radioligand binding, [3H]-prazosin, α1b
T1 construct: expressed in transfected cells; host or cells: mouse fibroblasts
T1 sequence (P18841 1-515): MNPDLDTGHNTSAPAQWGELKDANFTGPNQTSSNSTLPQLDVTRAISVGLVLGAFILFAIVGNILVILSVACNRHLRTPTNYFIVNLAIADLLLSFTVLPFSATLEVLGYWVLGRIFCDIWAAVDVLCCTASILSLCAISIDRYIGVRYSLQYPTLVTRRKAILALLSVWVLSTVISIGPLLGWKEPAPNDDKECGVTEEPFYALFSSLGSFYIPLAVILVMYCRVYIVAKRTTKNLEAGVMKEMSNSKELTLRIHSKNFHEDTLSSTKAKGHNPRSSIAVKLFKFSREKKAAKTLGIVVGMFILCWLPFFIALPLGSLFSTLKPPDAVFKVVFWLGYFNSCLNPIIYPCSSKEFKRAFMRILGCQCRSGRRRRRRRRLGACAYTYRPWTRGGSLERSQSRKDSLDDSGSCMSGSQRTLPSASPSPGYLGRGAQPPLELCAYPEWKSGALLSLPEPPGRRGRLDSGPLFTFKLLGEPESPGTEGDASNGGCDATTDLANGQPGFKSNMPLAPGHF
Method: (§1) For purposes of discussing a, adrenoceptor subtypes, the IUPHAR convention of using lower case letters to define molecular clones and upper case letters to indicate pharmacologically defined adrenoceptors has been followed. Compounds of formula I were evaluated in radioligand binding assays specific for α1A (rat submaxillary gland), α1b (hamster receptor expressed in mouse fibroblasts) and α1d (rat receptor expressed in mouse fibroblasts) using [^3H]-prazosin as the radioligand as described in Knepper, et al. J. Pharm.

[2] = molecular target: T2, α1d (rat receptor expressed in mouse fibroblasts) (Rattus norvegicus, UniProt P23944); assay: Radioligand binding, [3H]-prazosin, α1d
T2 construct: expressed in transfected cells; host or cells: mouse fibroblasts
T2 sequence (P23944 1-561): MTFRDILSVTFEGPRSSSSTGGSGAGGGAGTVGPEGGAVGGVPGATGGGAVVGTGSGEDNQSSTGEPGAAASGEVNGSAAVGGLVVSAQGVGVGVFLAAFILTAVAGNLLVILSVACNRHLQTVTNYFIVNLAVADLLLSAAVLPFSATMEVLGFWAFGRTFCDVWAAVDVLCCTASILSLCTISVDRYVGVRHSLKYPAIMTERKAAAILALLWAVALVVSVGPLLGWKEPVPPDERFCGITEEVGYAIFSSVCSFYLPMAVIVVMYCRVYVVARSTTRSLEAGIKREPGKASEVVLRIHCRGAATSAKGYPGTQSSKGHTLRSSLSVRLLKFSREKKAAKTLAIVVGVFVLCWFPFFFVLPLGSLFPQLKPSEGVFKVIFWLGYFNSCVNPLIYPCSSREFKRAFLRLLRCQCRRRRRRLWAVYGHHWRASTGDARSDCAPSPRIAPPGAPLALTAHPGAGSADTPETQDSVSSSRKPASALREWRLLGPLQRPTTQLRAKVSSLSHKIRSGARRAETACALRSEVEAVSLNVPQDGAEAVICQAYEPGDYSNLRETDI
Method: as §1

[3] = molecular target: T3, α1A (rat submaxillary gland) (Rattus norvegicus, UniProt P43140); assay: Radioligand binding, [3H]-prazosin, α1A
T3 construct: α1A (rat submaxillary gland); from tissue; host or cells: rat submaxillary gland
T3 sequence (P43140 1-466): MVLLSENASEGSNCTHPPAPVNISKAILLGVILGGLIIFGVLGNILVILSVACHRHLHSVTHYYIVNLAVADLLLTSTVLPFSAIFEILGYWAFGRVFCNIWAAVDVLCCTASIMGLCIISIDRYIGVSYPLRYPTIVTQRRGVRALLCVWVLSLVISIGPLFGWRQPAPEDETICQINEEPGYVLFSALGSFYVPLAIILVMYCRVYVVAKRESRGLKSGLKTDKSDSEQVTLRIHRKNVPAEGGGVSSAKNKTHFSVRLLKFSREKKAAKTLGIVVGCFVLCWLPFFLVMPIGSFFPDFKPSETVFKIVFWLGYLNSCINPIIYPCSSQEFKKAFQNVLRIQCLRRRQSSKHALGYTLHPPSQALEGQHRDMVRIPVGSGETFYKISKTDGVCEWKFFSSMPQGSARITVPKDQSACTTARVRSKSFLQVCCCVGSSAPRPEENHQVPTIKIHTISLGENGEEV
Method: as §1

[4] = hamster receptor expressed in mouse fibroblasts, [3H]-prazosin, read-out: Radioligand Binding Ki α1b (Hamster)
[5] = rat receptor expressed in mouse fibroblasts, [3H]-prazosin, read-out: Radioligand Binding Ki α1d (Rat)

Ki [2, 5] | SMILES | Ki [1, 4] | melting point | Ki [3] | Ki [1] | Ki [2]
1.59 µM | CN(C)S(=O)(=O)Nc1cccc2c1CCCC2c1c[nH]cn1 (stereo not shown) [Example 111, N′-[5-(1H-imidazol-4-yl)-5,6,7,8-tetrahydro-1-naphthalenvyl]-N,N-dimethylsulfamide] | 10 µM | 208 to 210 °C | 0.579 µM |  | 
10 µM | CCS(=O)(=O)Nc1cccc2c1OCCC2c1c[nH]cn1 (stereo not shown) [Example 79, N-[4-(1H-imidazol-4-yl)-3,4-dihydro-2H-chromen-8-yl]ethanesulfonamide] | 10 µM |  | 0.638 µM |  | 
 | Cc1ccc(NS(C)(=O)=O)c2c1C(c1c[nH]cn1)CCC2.O=C(O)/C=C\C(=O)O (stereo not shown) [Example 23, N-[5,6,7,8-tetrahydro-5-(1H-imidazol-4-yl)-4-methyl-1-naphthalenyl]methanesulfonamide, Maleate] | 10 µM | 192 to 195 °C |  |  | 
 | CCS(=O)(=O)Nc1cc(C2CCCCC2)cc2c1CCCC2c1c[nH]cn1 (stereo not shown) [Example 101, N-[3-cyclohexyl-5-(1H-imidazol-4-yl)-5,6,7,8-tetrahydro-1-naphthalenyl]ethanesulfonamide] |  | 207 to 209 °C | 0.269 µM | 0.886 µM | 0.449 µM
 | Cc1ccc(OC(=O)Nc2cccc3c2CCCC3c2c[nH]cn2)cc1 (stereo not shown) [Example 124, 4-methylphenyl 5-(1H-imidazol-4-yl)-5,6,7,8-tetrahydro-1-naphthalenylcarbamate] |  |  | 0.451 µM | 1.47 µM | 0.787 µM
 | CCCn1cnc(C2CCCc3c2ccc(O)c3NS(C)(=O)=O)c1.Cl (stereo not shown) [Example 7, N-[2-hydroxy-5-(1-propyl-1H-imidazol-4-yl)-5,6,7,8-tetrahydro-1-naphthalenyl]methanesulfonamide, Hydrochloride] | 100 µM | 128 to 133 °C |  |  | 
 | CCS(=O)(=O)Nc1cccc2c1COC2c1c[nH]cn1.O=C(O)/C=C\C(=O)O (stereo not shown) [Example 87, N-[1-(1H-imidazol-4-yl)-1,3-dihydro-2-benzofuran-4-yl]ethanesulfonamide Maleate] |  | 95 to 98 °C | 0.936 µM | 10 µM | 10 µM
 | COC(=O)Nc1cccc2c1CCCC2c1c[nH]cn1 (stereo not shown) [Example 119, methyl 5-(1H-imidazol-4-yl)-5,6,7,8-tetrahydro-1-naphthalenylcarbamate] |  |  |  | 10 µM | 3.04 µM
 | CC(C)(OC(=O)Nc1cccc2c1CCCC2c1c[nH]cn1)C(Cl)(Cl)Cl (stereo not shown) [Example 122, 2,2,2-trichloro-1-dimethylethyl 5-(1H-imidazol-4-yl)-5,6,7,8-tetrahydro-1-naphthalenylcarbamate] |  |  | 1.03 µM | 10 µM | 1.27 µM
 | C=C(c1cccc(NS(=O)(=O)CC(F)(F)F)c1)c1c[nH]cn1.O=C(O)/C=C\C(=O)O [Example 91, 2,2,2-trifluoro-N-{3-[1-(1H-imidazol-4-yl)vinyl]phenyl}ethanesulfonamide Maleate] |  | 149 to 153 °C | 1.52 µM | 10 µM | 10 µM
 | CS(=O)(=O)Nc1ccc(Cl)c2c1CCCC2c1c[nH]cn1.O=C(O)/C=C\C(=O)O (stereo not shown) [Example 43, N-[4-chloro-5-(1H-imidazol-4-yl)-5,6,7,8-tetrahydro-1-naphthalenyl]methanesulfonamide, Maleate] | 10 µM | 175 to 178 °C |  |  | 
2.16 µM | CCS(=O)(=O)Nc1cc(F)cc2c1CCCC2c1c[nH]cn1 (stereo not shown) [Example 131, N-[3-fluoro-5-(1H-imidazol-4-yl)-5,6,7,8-tetrahydro-1-naphthalenyl]ethanesulfonamide] | 10 µM |  | 0.09 µM |  | 
10 µM | Cc1noc(C)c1S(=O)(=O)Nc1cccc2c1CCCC2c1c[nH]cn1 (stereo not shown) [Example 61, N-[5-(1H-imidazol-4-yl)-5,6,7,8-tetrahydro-1-naphthalenyl]-3,5-dimethyl-4-isoxazolesulfonamide] | 10 µM |  |  |  | 
0.92 µM | CCN(C(=O)Nc1cccc2c1CCCC2c1c[nH]cn1)C(C)C (stereo not shown) [Example 118, N-ethyl-N′-[5-(1H-imidazol-4-yl)-5,6,7,8-tetrahydro-1-naphthalenyl]-N-isopropylurea] | 10 µM |  | 0.329 µM |  | 
2.91 µM | CCOC(=O)Nc1cccc2c1CCCC2c1c[nH]cn1 (stereo not shown) [Example 120, ethyl 5-(1H-imidazol-4-yl)-5,6,7,8-tetrahydro-1-naphthalenylcarbamate] | 10 µM |  | 0.164 µM |  | 
10 µM | O=S(=O)(CC(F)(F)F)Nc1cccc2c1OCCC2c1c[nH]cn1 (single isomer, unassigned) [Example 88, 2,2,2-trifluoro-N-[4-(1H-imidazol-4-yl)-3,4-dihydro-2H-chromen-8-yl]ethanesulfonamide] | 10 µM |  | 0.573 µM |  | 
 | CCS(=O)(=O)Nc1ccc(Cl)c2c1CCCC2c1c[nH]cn1.O=C(O)/C=C\C(=O)O (stereo not shown) [Example 42, N-[4-chloro-5-(1H-imidazol-4-yl)-5,6,7,8-tetrahydro-1-naphthalenyl]ethanesulfonamide, Maleate] | 10 µM | 151 to 155 °C |  |  | 

SMILES | Ki [2, 5] | Ki [1, 4] | melting point | Ki [3] | Ki [1] | Ki [2]
CCS(=O)(=O)Nc1cccc2c1SCCC2c1c[nH]cn1.O=C(O)/C=C\C(=O)O (stereo not shown) [Example 89, N-[4-(1H-imidazol-4-yl)-3,4-dihydro-2H-thiochromen-8-yl]ethanesulfonamide Maleate] | 10 µM | 10 µM | 248 to 251 °C | 1.01 µM |  | 
CS(=O)(=O)Nc1ccc(O)c2c1CCCC2c1c[nH]cn1.O=C(O)/C=C\C(=O)O (stereo not shown) [Example 24, N-[5,6,7,8-tetrahydro-4-hydroxy-5-(1H-imidazol-4-yl)-1-naphthalenyl]methanesulfonamide, Maleate] | 10 µM | 10 µM | 127 to 131 °C |  |  | 
CCS(=O)(=O)Nc1ccc(OC)c2c1CCCC2c1c[nH]cn1 (stereo not shown) [Example 25, N-[5,6,7,8-tetrahydro-(1H-imidazol-4-yl)-4-methoxy-1-naphthalenyl]ethanesulfonamide, Maleate] | 10 µM | 10 µM |  |  |  | 
O=S(=O)(CC(F)(F)F)Nc1cccc2c1CCCC2c1c[nH]cn1 (single isomer, unassigned; (+)) [Example 36, (+)-N-[5,6,7,8-tetrahydro-5-(1H-imidazol-4-yl)-1-napbthalenyl]-2,2,2-trifluoroethanesulfonamide] | 10 µM |  | > 260 °C |  |  | 
CCS(=O)(=O)Nc1cccc2c1CCCC2c1c[nH]c(C)n1.O=C(O)/C=C\C(=O)O (stereo not shown) [Example 84, N-[5-(2-methyl-1H-imidazol-4-yl)-5,6,7,8-tetrahydro-1-naphthalenyl]ethanesulfonamide, Maleate] | 10 µM | 10 µM | 73 to 77 °C | 0.792 µM |  | 
CCS(=O)(=O)Nc1cccc2c1CCCCC2c1c[nH]cn1.O=C(O)/C=C\C(=O)O (stereo not shown) [Example 40, N-[5-(1H-imidazol-4-yl)-6,7,8,9-tetrahydro-5H-benzo[a]cyclohepten-1-yl]ethanesulfonamide, Maleate] | 10 µM | 10 µM | 155 to 156 °C |  |  | 
